Assay results from patent US20110111016A1, “NON-DNA BASE-CONTAINING POLYNUCLEOTIDE COMPOSITIONS AND THEIR USE FOR THE MODULATION OF IMMUNE RESPONSES” (priority 2009, published 2011).
Strand notation (5' to 3'): a small letter for the sugar, then the base; units joined by * are phosphorothioate-linked, units joined directly phosphodiester-linked; [ ] holds rarer units or linkages, { } end groups; capitals alone tell only the bases. d = 2'-deoxy (DNA)

System: human PBMC
Test: Induction of cytokines and chemokines from human PBMC, comparison with CpG polynucleotides (Milliplex MAP kit)
Assay type: cell-based
Details: for Cytokine, IL-6 / Cytokine, IL-10 / Cytokine, MCP-1 / Cytokine, RANTES (CCL5): human PBMC culture supernatant, 48 h, final concentration 10 μg/mL; for Chemokine (MCP-1, RANTES) inducing activity towards human PBMC (in words) / Interleukin (cytokine) inducing activity towards human PBMC (in words): in comparison to LPS and MCC, Table 14
Method: LPS and MCC were included as positive controls as described in Example 7. PBMC were isolated from whole blood using standard Ficoll-Paque Plus (GE Healthcare Life Sciences, Baie d'Urfé, QC, Canada) gradient centrifugation, and placed in tissue culture plates at a concentration of 1×10^6 cells/mL (total volume: 1 mL in RPMI 1640 medium containing 10% heat-inactivated FBS (both from Wisent, St-Bruno, QC, Canada) and 50 μg/mL gentamycin sulfate (Sigma-Aldrich Canada, Oakville, ON, Canada). Non-DNA base-containing polynucleotide SEQ ID NOs: 1, 2, 3, 4, 5, 6, 7, 8 and 9 were added to separate wells to give a final concentration of 10 μg/mL, LPS was added to give a final concentration of 10 μg/mL, and the non-CpG 4010, CpG 2336, CpG 2429 and CpG 7909 polynucleotides, SEQ ID NOs: 31, 33, 35 and 34, respectively, were added to give a final concentration of 10 μg/mL.
The cells were then cultivated for 48 h. Cytokines (interleukins IL-6 and IL-10, chemokines MCP-1 and RANTES) in the culture supernatant were measured using a Milliplex™ MAP kit (Millipore Corporation, Billerica, Mass., USA) on a Bio-Plex 200 system (Bio-Rad Laboratories, Hercules, Calif., USA). MCP-1, also known as monocyte chemotactic protein, is an essential chemokine required for effective monocyte and myeloid dendritic cell activation and trafficking across endothelial and epithelial barriers (see for example Henkel et al, 2004 Ann. Neurol. 55:221-235), and RANTES (Regulated on Activation, Normal T cell Expressed and Secreted, now more commonly known as CCL5) is produced by memory phenotype T cells and is chemotactic for and activates T-cells (see for example Swanson et al, 2002 Immunity 17:605-615).

Row | Substance | Cytokine, IL-6 [pg/mL] | Cytokine, IL-10 [pg/mL] | Cytokine, MCP-1 [pg/mL] | Cytokine, RANTES (CCL5) [pg/mL] | Chemokine (MCP-1, RANTES) inducing activity towards human PBMC (in words) | Interleukin (cytokine) inducing activity towards human PBMC (in words)
1 | 5′-TCGTCGTTTTCGGCGGCCGCCG-3′ (DNA dT*dC*dG*dT*dC*dG*dT*dT*dT*dT*dC*dG*dG*dC*dG*dG*dC*dC*dG*dC*dC*dG) [SEQ ID NO: 35, reference compound] | 42 | 0 | 906 | 136 | strong MCP-1 inducing activity | did not induce cytokines
2 | 5′-TCGTCGTTTTGTCGTTTTGTCGTT-3′ [SEQ ID NO: 34, reference compound] | 41 | 2 | 1270 | 187 | strong MCP-1 inducing activity | did not induce cytokines
3 | 5′-TGCTGCTTTTTGCTGGCTTTTT-3′ (DNA dT*dG*dC*dT*dG*dC*dT*dT*dT*dT*dT*dG*dC*dT*dG*dG*dC*dT*dT*dT*dT*dT) [SEQ ID NO: 31, reference compound] | 43 | 0 | 343 | 275 | had chemokine-inducing activity | –
4 | GGGTGGUUU (DNA GGGTGGNNN; Three 3' uracils, sugar and linkages not given here, further chemistry not given here) [SEQ ID NO: 9, 5′-OH, 3′-OH non-DNA base-containing polynucleotide] | 133 | 1 | 914 | 117 | strong MCP-1 inducing activity | –
5 | 5′-GGGGACGACGTCGTCGGGGGG-3′ (DNA dG*dG*dG*dG*dA*dC*dG*dA*dC*dG*dT*dC*dG*dT*dC*dG*dG*dG*dG*dG*dG) [SEQ ID NO: 33, reference compound] | 9 | 0 | 573 | 105 | strong MCP-1 inducing activity | did not induce cytokines
6 | GGGTGGIII (DNA GGGTGGNNN; Three 3' inosines, sugar and linkages not given here, further chemistry not given here) [SEQ ID NO: 7, 5′-OH, 3′-OH non-DNA base-containing polynucleotide] | 1 | 0 | 79 | 71 | marginal or no | marginal or no
7 | GNebG (DNA GNG; Central nebularine, sugar and linkages not given here, further chemistry not given here) [SEQ ID NO: 4, 5′-OH, 3′-OH non-DNA base-containing polynucleotide] | 1960 | 28 | 7000 | 211 | strong | strong
8 | GUG (DNA GNG; Central uracil in DNA, sugar and linkages not given here, further chemistry not given here) [SEQ ID NO: 8, 5′-OH, 3′-OH non-DNA base-containing polynucleotide] | 0 | 0 | 78 | 78 | marginal or no | marginal or no
9 | GGGTGGNebNebNeb (DNA GGGTGGNNN; Three 3' nebularines, sugar and linkages not given here, further chemistry not given here) [SEQ ID NO: 5, 5′-OH, 3′-OH non-DNA base-containing polynucleotide] | 845 | 13 | 3600 | 202 | strong | strong
10 | GIG (DNA GNG; Central inosine, sugar and linkages not given here, further chemistry not given here) [SEQ ID NO: 6, 5′-OH, 3′-OH non-DNA base-containing polynucleotide] | 0 | 0 | 48 | 137 | marginal or no | marginal or no
